# Measurements from patent publication US5874597A, “Certain aminosterol compounds and pharmaceutical compositions including these compounds” (priority 1995, dated 1999).
# Legend:
# [1] = tested on: vitelline capillaries of chick embryo; experiment: chick embryo vitelline capillary regression assay; type: in vivo; conditions: Table II
# Procedure: Using the chick embryo vitelline capillaries assay, compounds were tested for their ability to induce capillary regression. Each compound was applied in 0.1 ml of 15% Ficol 400 and PBS onto the embryo, and vascular regression was assessed after 60 minutes.
# The 3-day chick embryo consists of an embryonic disc from which numerous vessels emerge and return, forming a "figure 8"-shaped structure--the embryo in the center with vascular loops extending outward over both poles. […] Following a lag period of around 15 minutes, the constriction of continuity between capillary and secondary vessels, generally on the "venous" side, was observed. Continued pulsatile blood flow progressed, resulting in a "swelling" of the blind tube, followed by a pinching off of the remaining connection and formation of an enclosed vascular sac resembling a "blood island." This process progressed until only the largest vessels remained intact.
# [2] = tested on: HM; experiment: HM MTT assay; type: cell-based; conditions: Table II; read-out: HM MTT assay, Minimum Effective Concentration
smiles,measurement,setting,value
"CC(CCC(=O)O)[C@H]1CCC2C3C(CC[C@@]21C)[C@@]1(C)CC[C@@H](NCCCNCCCCN)CC1C[C@H]3O (single isomer, unassigned)","Chick embryo diss. assay, Minimum Effective Concentration",[1],0.01 µg
same,minimal effective concentration,[2],58.6 µg/mL
